The subject of the test is 485368-065-R3-J5-PDC spheroids with HUVEC/MSC, viability. Nature of the test: Anticancer human tumor 485368-065-R3-J5-PDC patient-derived pancreatic carcinoma cell line growth inhibition [RAS]. The following applies: for viability, T/C: stronger effect = lower value. The text has this:
RAS pathway inhibitors in Combinations in Complex Spheroids
A high-throughput screen of multi-cell type tumor spheroids was designed to identify active combinations of RAS pathway inhibitors and targeted small molecules. Complex spheroids include a stromal component modeled by human endothelial cells (HUVEC) and fibroblasts modeled by human mesenchymal stem cells (MSCs). The concentration ranges selected for each drug and investigational agent were based upon clinically achievable concentrations if the clinical Cmax of the agent was known.
Compounds. The drugs and investigational agents: abemaciclib (NSC768073), cobimetinib (NSC768068), divarasib (GDC6063, NSC841802), docetaxel (NSC628503), GDC-1971 (RLY-1971, NSC841576), gemcitabine (NSC613327), inavolisib (NSC800729), ipatasertib (NSC767898), KB-0742 (NSC834161), MRTX-1133 (NSC836407), osimertinib (NSC779217), RMC-4630 (NSC839698), RMC-6236 (NSC851965), RMC-6291 (NSC852671), Ro-3306 (NSC812927), sapanisertib (NSC764658), SN-38 (NSC673596), staurosporine (NSC755774), SY5609 (NSC837396), and tovorafenib (DAY101, NSC766906), were obtained from the National Cancer Institute (NCI) Developmental Therapeutics Program Chemical Repository. The FDA-approved anticancer drug set is available from the NCI Developmental Therapeutics Program. […] The stock solutions were prepared in dimethyl sulfoxide (DMSO, Sigma-Aldrich, St. Louis, MO, cat. D2650) at 800-fold the tested concentration and stored at -70 degrees C prior to their use. All drugs and investigational agents were tested over a range starting from a high concentration at or near the clinical Cmax and decreasing in half-log increments. If the clinical Cmax for an agent had not been determined, the highest concentration tested was 10 microM.
Cell Culture. All cells were maintained in an incubator at 37 degrees C and 5% CO2 with 95% humidity. The PDC lines were cultured according to standard operating procedures established by the NCI PDMR. All PDCs were thawed and cultured in Matrigel-coated flasks prepared with a working solution of 1X Ham's F-12 nutrient mix, without supplementation (Invitrogen, Waltham, MA, cat. 11765054), 100 U/mL penicillin-streptomycin (Invitrogen, cat. 15140122), and 2.5% Matrigel (Corning Inc., Corning, NY, cat. 354248) for the first three passages. The 362531-283-R-J2-PDC and 782815-120-R-J1-PDC lines were cultured in 6C/Colon 1B media, which includes advanced DMEM/F-12 (Thermo Fisher Scientific, cat. 12634028), 10 mM HEPES (Thermo Fisher Scientific, cat. 15630080), 1X GlutaMAX supplement (Thermo Fisher Scientific, cat. 35050061), 0.1 mg/mL primocin (InvivoGen, San Diego, CA, cat. ant-pm-2), 10% defined fetal bovine serum, heat inactivated (HyClone Laboratories Inc., Logan, UT, cat. SH30070.03HI), 50% L-WRN conditioned media (ATCC, cat. CRL-3276), 1.25 mM N-Acetyl-L-cysteine (Sigma-Aldrich, cat. A9165), 10 mM nicotinamide (Sigma-Aldrich, cat. N0636), 1X B-27 supplement (Thermo Fisher Scientific, cat. 17504044), 1X N-2 supplement (Thermo Fisher Scientific, cat. 17502048), 50 ng/mL human EGF (Thermo Fisher Scientific, cat. PHG0311), and 10 microM Y-27632 dihydrochloride (Tocris Bioscience, cat. 1254). The K12877-001-R-J1-PDC line was cultured in 6I media, which includes all 6C/Colon 1B media plus 10 ng/mL human FGF-10 (PeproTech, cat. 100-26), 1 ng/mL human FGF-2 (PeproTech, cat. 100-18B), 1 µM prostaglandin E2 (Tocris Bioscience, cat. 2296), […] hydrocortisone (Sigma-Aldrich, cat. H4001), and […] bovine insulin (Sigma-Aldrich, cat. I6634). The K86415-001-R-J1-PDC line was cultured in 6D media, which includes all 6C/Colon 1B media components minus the L-WRN conditioned media. The 485176-168-R4-J1-PDC was cultured in PANC media, which includes all 6C/Colon 1B media plus 100 ng/mL human FGF-10 (PeproTech, cat. 100-26), 500 nM SB-431542 (Selleckchem, cat. S1067), and 10 nM gastrin (Tocris Bioscience, cat. 3006). […]

[1] abbreviates: compound alone, run of 07/09/2024.
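Also: spheroids exposed to agents for seven days before readout.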

As to `C=CC(=O)N1CCN(c2nc(OCC3CCCN3C)nc3c(F)c(-c4nc(N)cc(C)c4C(F)(F)F)c(Cl)cc23)C(C)C1` (stereo not given), the viability, T/C (usually the ratio of treated to control) (compound 0.00316 µM) was 106% [middle of 12 runs]; the viability, T/C (compound 0.01 µM, compound 0.0316 µM) is 101%; the viability, T/C (compound 0.01 µM, compound 0.1 µM) was 98.5%; the viability, T/C (compound 0.01 µM, compound 0.316 µM) was 111%; the viability, T/C (compound 0.01 µM, compound 1 µM) was 97%; the viability, T/C (compound 0.01 µM) is 104% [middle of 12 runs]. For the same compound, the viability, T/C runs as follows: (compound 0.0316 µM, compound 0.00316 µM) 102%; (compound 0.0316 µM, compound 0.01 µM) 110%; (compound 0.0316 µM, compound 0.1 µM) 107%; (compound 0.0316 µM, compound 0.316 µM) 107%; (compound 0.0316 µM, compound 1 µM) 113%; (compound 0.0316 µM) 106% [middle of 13 runs]. In addition, the viability, T/C was 116% (compound 0.1 µM, compound 0.00316 µM); 112% (compound 0.1 µM, compound 0.01 µM); 99.1% (compound 0.1 µM, compound 0.0316 µM); 107% (compound 0.1 µM, compound 0.316 µM); 94% (compound 0.1 µM, compound 1 µM); 101% [middle of 13 runs] (compound 0.1 µM). The viability, T/C (compound 0.316 µM, compound 0.00316 µM) was 103%; the viability, T/C (compound 0.316 µM, compound 0.01 µM) is 104%; the viability, T/C (compound 0.316 µM, compound 0.0316 µM) was 102%; the viability, T/C (compound 0.316 µM, compound 0.1 µM) is 108%; the viability, T/C (compound 0.316 µM, compound 1 µM) was 100%; the viability, T/C (compound 0.316 µM) was 106% [middle of 13 runs]. Besides, the viability, T/C (compound 1 µM, compound 0.00316 µM) was 112%; the viability, T/C (compound 1 µM, compound 0.01 µM) is 106%; the viability, T/C (compound 1 µM, compound 0.0316 µM) is 108%; the viability, T/C (compound 1 µM, compound 0.1 µM) was 101%; the viability, T/C (compound 1 µM, compound 0.316 µM) is 96.7%; the viability, T/C (compound 1 µM) was 101% [middle of 13 runs]. Besides, the IC50 (usually the concentration needed to halve the response being measured) (compound alone, run of 07/15/2024) was more than 1 µM and the IC50 (curve of compound) is more than 1 µM.
For the compound `C=CC(=O)Nc1cc(Nc2nccc(-c3cn(C)c4ccccc34)n2)c(OC)cc1N(C)CCN(C)C`, the viability, T/C reads like this: (compound 0.00316 µM) 108% [middle of 4 runs]; (compound 0.01 µM) 94.1% [middle of 4 runs]; (compound 0.0316 µM) 109% [middle of 4 runs]; (compound 0.1 µM) 106% [middle of 4 runs]; (compound 0.316 µM) 104% [middle of 4 runs]; (compound 1 µM) 97.5% [middle of 4 runs]. Further, the half-maximal inhibitory concentration (IC50) (curve of compound) is more than 1 µM.
Turning to `CC(C)n1nc(-c2ccc3oc(N)nc3c2)c2c(N)ncnc21`, the viability, T/C runs as follows: (compound 0.000316 µM) 106% [middle of 4 runs]; (compound 0.001 µM) 91.4% [middle of 4 runs]; (compound 0.00316 µM) 89% [middle of 4 runs]; (compound 0.01 µM) 65.8% [middle of 4 runs]; (compound 0.0316 µM) 42.8% [middle of 4 runs]; (compound 0.1 µM) 23.6% [middle of 4 runs]. Further, the IC50 (curve of compound) is 22.7 nM [middle of 4 runs].
For the compound `CCN1CCN(Cc2ccc(Nc3ncc(F)c(-c4cc(F)c5nc(C)n(C(C)C)c5c4)n3)nc2)CC1`, the viability, T/C (compound 0.00316 µM) was 99.7% [middle of 4 runs]; the viability, T/C (compound 0.01 µM) was 91.6% [middle of 4 runs]; the viability, T/C (compound 0.0316 µM) is 90.2% [middle of 4 runs]; the viability, T/C (compound 0.1 µM) is 75.6% [middle of 4 runs]; the viability, T/C (compound 0.316 µM) was 59.6% [middle of 4 runs]; the viability, T/C (compound 1 µM) is 45.4% [middle of 4 runs].
Take `CCc1c2c(nc3ccc(O)cc13)-c1cc3c(c(=O)n1C2)COC(=O)[C@]3(O)CC`: the viability, T/C by setting is: (compound 0.000949 µM) 86.9% [middle of 4 runs]; (compound 0.003 µM) 34.5% [middle of 4 runs]; (compound 0.00949 µM) 14.6% [middle of 4 runs]; (compound 0.03 µM) 7.01% [middle of 4 runs]; (compound 0.0949 µM) 4.37% [middle of 4 runs]; (compound 0.3 µM) 3.18% [middle of 4 runs]. In addition, the IC50 (curve of compound) is 2.19 nM [middle of 4 runs].
For `CCn1c(-c2cc(N3CCN(C)CC3)cnc2C(C)OC)c2c3cc(ccc31)-c1csc(n1)CC(NC(=O)C1CC1C)C(=O)N1CCCC(N1)C(=O)OCC(C)(C)C2` (stereo not given), the viability, T/C reads like this: (compound 0.000949 µM) 35.5% [middle of 8 runs]; (compound 0.003 µM) 22.9% [middle of 8 runs]; (compound 0.00949 µM) 17.3% [middle of 8 runs]; (compound 0.03 µM) 12.7% [middle of 8 runs]; (compound 0.0949 µM) 10.3% [middle of 7 runs]; (compound 0.3 µM) 8.88% [middle of 8 runs]. The IC50 under setting [1] is less than 0.000949 µM.
Take `CCn1c(-c2cccnc2C(C)OC)c2c3cc(ccc31)N1CCOC(CC(NC(=O)C(C(C)C)N(C)C(=O)C3(F)CCN(C(=O)C#CC(C)(C)N(C)C)CC3)C(=O)N3CCCC(N3)C(=O)OCC(C)(C)C2)C1` (stereo not given): the viability, T/C is 102% [middle of 8 runs] (compound 0.000949 µM); 103% [middle of 8 runs] (compound 0.003 µM); 102% [middle of 8 runs] (compound 0.00949 µM); 97.4% [middle of 8 runs] (compound 0.03 µM); 98% [middle of 8 runs] (compound 0.0949 µM); 96.9% [middle of 8 runs] (compound 0.3 µM). The half-inhibitory concentration (IC50) under setting [1] was more than 0.3 µM.
As to `O=C(c1ccc(F)c(F)c1Nc1ccc(I)cc1F)N1CC(O)([C@@H]2CCCCN2)C1`, the viability, T/C is, setting by setting: (compound 0.00316 µM) 98.9% [middle of 4 runs]; (compound 0.01 µM) 69.2% [middle of 4 runs]; (compound 0.0316 µM) 54.5% [middle of 4 runs]; (compound 0.1 µM) 36.6% [middle of 4 runs]; (compound 0.316 µM) 26.7% [middle of 4 runs]; (compound 1 µM) 11.3% [middle of 4 runs]. Moreover, the 50% inhibitory concentration (IC50) (curve of compound) was 42.7 nM [middle of 4 runs].
